Source: PubChem BioAssay AID651980 (The Scripps Research Institute Molecular Screening Center, 2013)
Active and inactive are the calls of the source. How the calls were made is not given here.

What was measured:
Assay in all cases: PubChem AID 651980
[1] = biological target: Acylamino-acid-releasing enzyme (Homo sapiens) (UniProt P13798); conditions: HEK293T in situ, ABPP-SILAC LC-MS/MS, NHU5 probe; APEH; at 5 µM; active compounds read low
[2] = system: CTSA; conditions: HEK293T in situ, ABPP-SILAC LC-MS/MS, NHU5 probe, at 5 µM, active compounds read low
[3] = biological target: Dipeptidyl peptidase 9 (Homo sapiens) (UniProt Q86TI2); conditions: HEK293T in situ, ABPP-SILAC LC-MS/MS, NHU5 probe; DPP9; at 5 µM; active compounds read low
Sequence of Dipeptidyl peptidase 9 (Homo sapiens) (Q86TI2 whole entry, looked up): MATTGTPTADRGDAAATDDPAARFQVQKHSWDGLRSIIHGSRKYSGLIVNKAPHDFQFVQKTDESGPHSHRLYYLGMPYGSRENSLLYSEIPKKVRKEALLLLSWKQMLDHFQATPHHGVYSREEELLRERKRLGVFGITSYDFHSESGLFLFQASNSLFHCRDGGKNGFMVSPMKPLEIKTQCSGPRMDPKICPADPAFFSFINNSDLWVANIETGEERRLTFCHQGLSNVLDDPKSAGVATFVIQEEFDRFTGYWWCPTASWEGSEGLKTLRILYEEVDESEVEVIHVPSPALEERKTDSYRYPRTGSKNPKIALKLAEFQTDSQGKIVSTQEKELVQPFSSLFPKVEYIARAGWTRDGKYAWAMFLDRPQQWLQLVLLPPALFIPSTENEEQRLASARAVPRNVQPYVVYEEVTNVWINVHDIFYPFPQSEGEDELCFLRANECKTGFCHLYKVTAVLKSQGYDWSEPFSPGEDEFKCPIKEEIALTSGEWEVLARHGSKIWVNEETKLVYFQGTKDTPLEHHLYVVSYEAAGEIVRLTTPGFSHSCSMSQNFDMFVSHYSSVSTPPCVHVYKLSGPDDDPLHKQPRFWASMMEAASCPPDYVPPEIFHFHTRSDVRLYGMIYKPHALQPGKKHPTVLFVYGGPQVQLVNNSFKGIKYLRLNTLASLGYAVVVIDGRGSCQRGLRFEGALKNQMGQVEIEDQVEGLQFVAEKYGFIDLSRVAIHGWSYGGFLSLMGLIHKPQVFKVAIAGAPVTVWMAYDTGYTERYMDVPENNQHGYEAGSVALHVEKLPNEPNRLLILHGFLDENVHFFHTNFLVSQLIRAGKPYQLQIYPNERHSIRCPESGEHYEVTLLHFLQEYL

[4] = system: MGLL; conditions: HEK293T in situ, ABPP-SILAC LC-MS/MS, NHU5 probe, at 5 µM, active compounds read low
[5] = system: ABHD10; conditions: HEK293T in situ, ABPP-SILAC LC-MS/MS, NHU5 probe, at 5 µM, active compounds read low
[6] = system: TPP2; conditions: HEK293T in situ, ABPP-SILAC LC-MS/MS, NHU5 probe, at 5 µM, active compounds read low
[7] = system: AADACL1; conditions: HEK293T in situ, ABPP-SILAC LC-MS/MS, NHU5 probe, at 5 µM, active compounds read low
[8] = biological target: Protein phosphatase methylesterase 1 (Homo sapiens) (UniProt Q9Y570); conditions: HEK293T in situ, ABPP-SILAC LC-MS/MS, NHU5 probe; PPME1; at 5 µM; active compounds read low
Sequence of Protein phosphatase methylesterase 1 (Homo sapiens) (Q9Y570 whole entry, looked up): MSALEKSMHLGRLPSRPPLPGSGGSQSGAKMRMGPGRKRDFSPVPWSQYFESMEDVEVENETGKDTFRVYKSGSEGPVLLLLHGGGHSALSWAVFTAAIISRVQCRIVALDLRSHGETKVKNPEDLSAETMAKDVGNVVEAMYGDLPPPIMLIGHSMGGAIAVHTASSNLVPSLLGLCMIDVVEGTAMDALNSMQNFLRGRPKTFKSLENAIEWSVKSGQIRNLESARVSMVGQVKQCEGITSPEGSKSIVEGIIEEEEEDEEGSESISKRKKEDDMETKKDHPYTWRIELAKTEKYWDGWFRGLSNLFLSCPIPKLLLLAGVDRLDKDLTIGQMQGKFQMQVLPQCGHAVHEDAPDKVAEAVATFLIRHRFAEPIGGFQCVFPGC

[9] = system: ABHD6; conditions: HEK293T in situ, ABPP-SILAC LC-MS/MS, NHU5 probe, at 5 µM, active compounds read low
[10] = system: PLA2G4A; conditions: HEK293T in situ, ABPP-SILAC LC-MS/MS, NHU5 probe, at 5 µM, active compounds read low
[11] = system: LYPLAL1; conditions: HEK293T in situ, ABPP-SILAC LC-MS/MS, NHU5 probe, at 5 µM, active compounds read low
[12] = biological target: Acyl-protein thioesterase 1 (Homo sapiens) (UniProt O75608); conditions: HEK293T in situ, ABPP-SILAC LC-MS/MS, NHU5 probe; LYPLA1; at 5 µM; active compounds read low
Sequence of Acyl-protein thioesterase 1 (Homo sapiens) (O75608 whole entry, looked up): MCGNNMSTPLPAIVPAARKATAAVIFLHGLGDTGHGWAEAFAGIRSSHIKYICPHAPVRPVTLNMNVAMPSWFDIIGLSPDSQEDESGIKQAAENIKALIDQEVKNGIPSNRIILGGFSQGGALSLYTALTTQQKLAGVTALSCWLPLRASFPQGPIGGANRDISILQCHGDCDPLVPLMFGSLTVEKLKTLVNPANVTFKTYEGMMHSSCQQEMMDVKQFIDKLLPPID

[13] = biological target: Fatty acid synthase (Homo sapiens) (UniProt P49327); conditions: HEK293T in situ, ABPP-SILAC LC-MS/MS, NHU5 probe; FASN; at 5 µM; active compounds read low
Sequence of Fatty acid synthase (Homo sapiens) (P49327 whole entry, looked up): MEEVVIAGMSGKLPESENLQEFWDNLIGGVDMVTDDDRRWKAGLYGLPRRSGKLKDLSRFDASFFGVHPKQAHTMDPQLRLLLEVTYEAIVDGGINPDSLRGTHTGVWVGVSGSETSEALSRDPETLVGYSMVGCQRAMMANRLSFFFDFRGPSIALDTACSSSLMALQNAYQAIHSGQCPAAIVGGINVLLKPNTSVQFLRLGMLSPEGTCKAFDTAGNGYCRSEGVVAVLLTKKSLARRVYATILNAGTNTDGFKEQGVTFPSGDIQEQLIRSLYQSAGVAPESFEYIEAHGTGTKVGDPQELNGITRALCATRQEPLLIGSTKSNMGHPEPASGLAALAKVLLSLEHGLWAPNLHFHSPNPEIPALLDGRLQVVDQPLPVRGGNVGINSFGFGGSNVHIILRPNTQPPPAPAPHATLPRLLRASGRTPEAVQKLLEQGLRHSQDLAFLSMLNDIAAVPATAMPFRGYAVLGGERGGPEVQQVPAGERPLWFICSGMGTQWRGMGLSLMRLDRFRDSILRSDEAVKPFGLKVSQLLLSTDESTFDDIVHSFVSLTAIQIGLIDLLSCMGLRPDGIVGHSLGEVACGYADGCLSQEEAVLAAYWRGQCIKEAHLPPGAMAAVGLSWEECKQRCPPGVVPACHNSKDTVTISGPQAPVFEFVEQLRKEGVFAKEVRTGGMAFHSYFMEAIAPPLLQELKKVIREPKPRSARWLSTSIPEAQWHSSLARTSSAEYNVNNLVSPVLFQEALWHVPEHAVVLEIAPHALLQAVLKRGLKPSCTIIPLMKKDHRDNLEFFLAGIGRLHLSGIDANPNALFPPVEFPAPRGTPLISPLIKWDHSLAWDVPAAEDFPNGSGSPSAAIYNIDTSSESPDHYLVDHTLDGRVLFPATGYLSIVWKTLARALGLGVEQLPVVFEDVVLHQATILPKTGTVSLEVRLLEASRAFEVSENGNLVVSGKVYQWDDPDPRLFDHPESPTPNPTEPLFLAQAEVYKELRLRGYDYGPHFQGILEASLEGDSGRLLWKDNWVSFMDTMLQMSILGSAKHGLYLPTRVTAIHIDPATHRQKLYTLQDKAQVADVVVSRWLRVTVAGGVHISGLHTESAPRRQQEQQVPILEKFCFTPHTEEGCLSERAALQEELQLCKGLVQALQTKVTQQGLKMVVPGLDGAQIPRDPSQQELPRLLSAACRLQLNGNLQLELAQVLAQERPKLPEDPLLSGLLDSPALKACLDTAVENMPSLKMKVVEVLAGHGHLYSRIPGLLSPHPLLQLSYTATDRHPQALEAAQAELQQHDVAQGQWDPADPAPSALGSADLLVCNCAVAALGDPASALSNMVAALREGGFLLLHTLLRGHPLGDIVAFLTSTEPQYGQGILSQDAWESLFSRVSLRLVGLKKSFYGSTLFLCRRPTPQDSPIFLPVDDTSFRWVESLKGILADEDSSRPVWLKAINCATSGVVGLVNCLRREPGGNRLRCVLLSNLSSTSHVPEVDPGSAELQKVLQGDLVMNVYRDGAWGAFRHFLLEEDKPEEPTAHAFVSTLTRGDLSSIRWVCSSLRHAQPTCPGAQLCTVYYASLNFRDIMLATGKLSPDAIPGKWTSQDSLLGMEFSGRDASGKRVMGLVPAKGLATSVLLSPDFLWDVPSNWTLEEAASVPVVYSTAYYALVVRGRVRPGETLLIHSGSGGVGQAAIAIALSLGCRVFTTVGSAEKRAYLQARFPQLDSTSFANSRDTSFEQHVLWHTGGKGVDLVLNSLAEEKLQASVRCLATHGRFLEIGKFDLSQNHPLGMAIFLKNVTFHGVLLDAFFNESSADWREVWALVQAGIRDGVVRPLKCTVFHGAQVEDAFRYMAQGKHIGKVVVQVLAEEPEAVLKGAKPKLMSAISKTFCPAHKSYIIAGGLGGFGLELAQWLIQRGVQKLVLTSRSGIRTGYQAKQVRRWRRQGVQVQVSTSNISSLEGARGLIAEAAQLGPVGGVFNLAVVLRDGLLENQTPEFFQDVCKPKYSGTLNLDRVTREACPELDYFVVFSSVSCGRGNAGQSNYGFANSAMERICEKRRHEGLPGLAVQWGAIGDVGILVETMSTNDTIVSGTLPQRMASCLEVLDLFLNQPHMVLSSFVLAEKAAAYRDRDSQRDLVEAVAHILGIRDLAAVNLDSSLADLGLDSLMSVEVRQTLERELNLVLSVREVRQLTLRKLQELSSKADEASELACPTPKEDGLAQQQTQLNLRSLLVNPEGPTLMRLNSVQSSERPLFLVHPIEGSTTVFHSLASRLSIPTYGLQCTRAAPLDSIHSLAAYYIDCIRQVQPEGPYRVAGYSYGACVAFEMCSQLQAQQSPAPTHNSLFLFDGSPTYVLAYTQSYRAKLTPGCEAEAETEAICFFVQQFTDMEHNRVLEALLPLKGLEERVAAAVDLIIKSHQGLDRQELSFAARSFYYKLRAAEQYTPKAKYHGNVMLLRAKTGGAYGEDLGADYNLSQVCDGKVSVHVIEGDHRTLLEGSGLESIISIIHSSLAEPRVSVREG

[14] = system: PNPLA6; conditions: HEK293T in situ, ABPP-SILAC LC-MS/MS, NHU5 probe, at 5 µM, active compounds read low
[15] = system: ESD; conditions: HEK293T in situ, ABPP-SILAC LC-MS/MS, NHU5 probe, at 5 µM, active compounds read low
[16] = system: ABHD12; conditions: HEK293T in situ, ABPP-SILAC LC-MS/MS, NHU5 probe, at 5 µM, active compounds read low
[17] = system: PREP; conditions: HEK293T in situ, ABPP-SILAC LC-MS/MS, NHU5 probe, at 5 µM, active compounds read low
[18] = biological target: Acyl-protein thioesterase 2 (Homo sapiens) (UniProt O95372); conditions: HEK293T in situ, ABPP-SILAC LC-MS/MS, NHU5 probe; LYPLA2; at 5 µM; active compounds read low
Sequence of Acyl-protein thioesterase 2 (Homo sapiens) (O95372 whole entry, looked up): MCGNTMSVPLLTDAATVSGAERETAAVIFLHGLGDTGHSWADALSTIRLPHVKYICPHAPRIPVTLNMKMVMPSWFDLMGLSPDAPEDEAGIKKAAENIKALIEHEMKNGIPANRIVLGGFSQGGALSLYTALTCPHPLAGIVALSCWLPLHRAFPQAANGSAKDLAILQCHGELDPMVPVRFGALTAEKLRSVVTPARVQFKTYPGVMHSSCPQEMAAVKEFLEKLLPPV

Sequence of Acylamino-acid-releasing enzyme (Homo sapiens) (P13798 whole entry, looked up): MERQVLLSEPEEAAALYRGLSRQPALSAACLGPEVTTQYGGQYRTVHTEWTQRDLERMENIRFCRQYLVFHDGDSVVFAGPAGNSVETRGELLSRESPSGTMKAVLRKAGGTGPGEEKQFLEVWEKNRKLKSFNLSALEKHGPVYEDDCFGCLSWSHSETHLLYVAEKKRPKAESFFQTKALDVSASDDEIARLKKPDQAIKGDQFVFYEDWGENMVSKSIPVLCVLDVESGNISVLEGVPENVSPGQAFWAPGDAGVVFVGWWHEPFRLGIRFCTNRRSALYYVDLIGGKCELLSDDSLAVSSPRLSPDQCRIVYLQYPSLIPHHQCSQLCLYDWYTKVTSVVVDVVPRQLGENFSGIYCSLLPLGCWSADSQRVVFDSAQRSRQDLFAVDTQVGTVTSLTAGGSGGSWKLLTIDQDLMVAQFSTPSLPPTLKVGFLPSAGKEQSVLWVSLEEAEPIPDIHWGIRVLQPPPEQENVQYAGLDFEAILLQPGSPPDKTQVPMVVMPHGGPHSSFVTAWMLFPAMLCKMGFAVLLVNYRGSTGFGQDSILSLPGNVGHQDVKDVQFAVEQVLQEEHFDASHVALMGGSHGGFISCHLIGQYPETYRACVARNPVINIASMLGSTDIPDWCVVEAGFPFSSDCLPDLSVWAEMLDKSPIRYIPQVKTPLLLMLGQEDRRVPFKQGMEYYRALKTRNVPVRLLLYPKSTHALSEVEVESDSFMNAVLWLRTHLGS

remaining activity ratio (inhibitor/DMSO) [1]: 1.23 (inactive) | remaining activity ratio (inhibitor/DMSO) [2]: 1.29 (inactive) | remaining activity ratio (inhibitor/DMSO) [3]: 1.17 (inactive) | remaining activity ratio (inhibitor/DMSO) [4]: 0.94 (inactive) | remaining activity ratio (inhibitor/DMSO) [5]: 1.21 (inactive) | remaining activity ratio (inhibitor/DMSO) [6]: 1.1 (inactive) | remaining activity ratio (inhibitor/DMSO) [7]: 1.14 (inactive) | remaining activity ratio (inhibitor/DMSO) [8]: 1.13 (inactive) | remaining activity ratio (inhibitor/DMSO) [9]: 1.37 (inactive) | remaining activity ratio (inhibitor/DMSO) [10]: 1.44 (inactive) | remaining activity ratio (inhibitor/DMSO) [11]: 1.23 (inactive) | remaining activity ratio (inhibitor/DMSO) [12]: 1.12 (inactive) | remaining activity ratio (inhibitor/DMSO) [13]: 1.15 (inactive) | remaining activity ratio (inhibitor/DMSO) [14]: 1.27 (inactive) | remaining activity ratio (inhibitor/DMSO) [15]: 1.17 (inactive) | remaining activity ratio (inhibitor/DMSO) [16]: 1.24 (inactive) | remaining activity ratio (inhibitor/DMSO) [17]: 1.05 (inactive) | remaining activity ratio (inhibitor/DMSO) [18]: 0.25
SMILES: COc1ccc(N2CCN(C(=O)c3cc4c(s3)-c3ccccc3S(=O)(=O)C4)CC2)cc1
